Measured values taken from US20230192677A1, “CYP11A1 INHIBITORS” (ORION CORPORATION, priority 2020, published 2023).

Columns and labels:
[1] = molecular target: T1, CYP11A1 (Homo sapiens, UniProt P05108); test: CYP11A1 inhibition, isocaproic acid release assay (IARA) in H295R cells; type: cell-based; conditions: human H295R adrenocortical carcinoma cell line, three days, 3 nM [24,25-3H]-labelled cholesterol; read-out: IC50 on CYP11A1 inhibition (Group)
T1 construct: human H295R adrenocortical carcinoma cell line was used as source of enzyme; endogenous in cells; host or cells: H295R human adrenocortical carcinoma cells
T1 sequence (P05108 40-521): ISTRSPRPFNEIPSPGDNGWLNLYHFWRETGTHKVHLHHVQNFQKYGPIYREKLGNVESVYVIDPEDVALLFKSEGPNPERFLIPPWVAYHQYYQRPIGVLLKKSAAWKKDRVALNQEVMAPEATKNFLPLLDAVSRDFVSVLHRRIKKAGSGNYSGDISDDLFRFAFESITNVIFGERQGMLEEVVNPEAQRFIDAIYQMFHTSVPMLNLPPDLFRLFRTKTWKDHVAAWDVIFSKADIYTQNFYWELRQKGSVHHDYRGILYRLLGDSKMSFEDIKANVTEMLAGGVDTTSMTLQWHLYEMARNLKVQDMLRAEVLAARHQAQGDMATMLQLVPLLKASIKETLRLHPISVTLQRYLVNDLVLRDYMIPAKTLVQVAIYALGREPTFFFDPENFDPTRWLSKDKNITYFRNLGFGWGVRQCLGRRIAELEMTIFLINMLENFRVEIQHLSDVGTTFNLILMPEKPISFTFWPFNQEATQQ
Method: The ability of the test compounds to inhibit conversion of cholesterol to pregnenolone and isocaproic acid was measured by modification of isocaproic acid release assay (IARA) described by Ruangwises et al. (Biology of Reproduction 1991; 45(1):143-50) except that human H295R adrenocortical carcinoma cell line was used as source of enzyme and extraction was done with dextran-coated charcoal suspension (Isomaa, V. et al., Endocrinology 1982; 111(3):833-843). […] To determine the half maximal inhibitory concentration (IC50) of the test compounds on CYP11A1 inhibition, the cells were treated for three days with increasing concentrations of the test compounds in the presence of 3 nM [24,25-3H]-labelled cholesterol (American Radiolabelled Chemicals). The final DMSO concentration was 1%. Cell culture medium was extracted with dextran-coated charcoal suspension and the radiolabelled isocaproic acid was determined by mixing 100 μl of supernatant fraction in 200 μl of scintillation fluid (OptiPhase SuperMix, Perkin Elmer). Radioactivity was measured using a Microbeta scintillation counter (1450 MicroBeta Trilux, Wallac). All the test compounds were studied at 10 concentrations in duplicates.

[2] = molecular target: recombinant human cytochrome P450 (CYP) CYP3A4 enzyme (Homo sapiens, UniProt P08684); test: Formation of reactive metabolites, trapping with GSH, KCN and SCA; conditions: recombinant human CYP3A4, NADPH, 1 hour, pH 7.4
Sequence of recombinant human cytochrome P450 (CYP) CYP3A4 enzyme (P08684 whole entry): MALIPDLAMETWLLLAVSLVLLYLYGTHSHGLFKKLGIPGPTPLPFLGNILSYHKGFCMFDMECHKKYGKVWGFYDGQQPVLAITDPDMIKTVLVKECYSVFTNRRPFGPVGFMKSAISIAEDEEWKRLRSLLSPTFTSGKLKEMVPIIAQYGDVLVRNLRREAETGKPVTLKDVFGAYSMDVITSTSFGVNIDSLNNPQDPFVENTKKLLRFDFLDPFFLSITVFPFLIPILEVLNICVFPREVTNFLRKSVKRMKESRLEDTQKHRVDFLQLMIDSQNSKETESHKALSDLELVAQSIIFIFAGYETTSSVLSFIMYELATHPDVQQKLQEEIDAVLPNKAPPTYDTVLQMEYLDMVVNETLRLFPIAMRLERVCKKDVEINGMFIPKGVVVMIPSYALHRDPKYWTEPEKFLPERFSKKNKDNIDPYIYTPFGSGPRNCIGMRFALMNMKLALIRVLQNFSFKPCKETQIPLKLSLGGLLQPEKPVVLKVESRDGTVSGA

IC50 [1] [nM] | SMILES | also measured
< 100 | CS(=O)(=O)c1cc(CN2Cc3ccccc3C2)ccc1OCc1ccc(C(=O)N=S(C)(C)=O)cc1 [Compound 78, N-(Dimethyl(oxo)-λ^6-sulfaneylidene)-4-((4-(isoindolin-2-ylmethyl)-2-(methyl-sulfonyl)phenoxy)methyl)benzamide] | 
< 100 | COCCN(C)C(=O)c1ccc(COc2ccc(CN3Cc4ccccc4C3)cc2S(C)(=O)=O)cc1 [Compound 69, 4-((4-(Isoindolin-2-ylmethyl)-2-(methylsulfonyl)phenoxy)methyl)-N-(2-methoxyethyl)-N-methylbenzamide] | 
201 to 2000 | CC(O)C1CCC(COc2ccc(CN3Cc4ccccc4C3)cc2S(C)(=O)=O)CC1 (stereo not drawn) [Compound 94, 1-(4-((4-(Isoindolin-2-ylmethyl)-2-(methylsulfonyl)phenoxy)methyl)cyclohexyl)ethan-1-ol] | 
< 100 | CCS(=N)(=O)c1ccc(COc2ccc(CN3Cc4ccccc4C3)cc2S(C)(=O)=O)cc1 (stereo not drawn) [Compound 71, Ethyl(imino)(4-((4-(isoindolin-2-ylmethyl)-2-(methylsulfonyl)phenoxy)methyl)-phenyl)-λ^6-sulfanone] | 
201 to 2000 | CC(=O)N1CCC(COc2ccc(CN3Cc4ccccc4C3)cc2S(C)(=O)=O)CC1 [Compound 87, 1-(4-((4-(Isoindolin-2-ylmethyl)-2-(methylsulfonyl)phenoxy)methyl)piperidin-1-yl)ethan-1-one] | 
< 100 | CC(C)C(=O)N1CCC(COc2ccc(CN3Cc4ccccc4C3)cc2S(C)(=O)=O)CC1 [Compound 73, 1-(4-((4-(Isoindolin-2-ylmethyl)-2-(methylsulfonyl)phenoxy)methyl)piperidin-1-yl)-2-methylpropan-1-one] | 
< 100 | CS(=O)(=O)c1cc(CN2Cc3ccccc3C2)ccc1OCc1ccc([S@@](C)(=N)=O)cc1 [Compound 96, (S)-Imino(4-((4-(isoindolin-2-ylmethyl)-2-(methylsulfonyl)phenoxy)methyl)-phenyl)(methyl)-λ^6-sulfanone] | 
< 100 | CC[S@](=N)(=O)c1ccc(COc2ccc(CN3Cc4ccccc4C3)cc2S(C)(=O)=O)cc1 [Compound 97, (S)-Ethyl(imino)(4-((4-(isoindolin-2-ylmethyl)-2-(methylsulfonyl)phenoxy)-methyl)phenyl)-λ^6-sulfanone] | 
< 100 | CS(=N)c1ccc(COc2ccc(CN3Cc4ccccc4C3)cc2S(C)(=O)=O)cc1 (stereo not drawn) [Compound 84, (4-((4-(Isoindolin-2-ylmethyl)-2-(methylsulfonyl)phenoxy)methyl)phenyl)-(methyl)-λ^4-sulfanimine] | 
< 100 | CN(C)C(=O)c1ccc(COc2ccc(CN3Cc4ccccc4C3)cc2S(C)(=O)=O)cc1 [Compound 68, 4-((4-(Isoindolin-2-ylmethyl)-2-(methylsulfonyl)phenoxy)methyl)-N,N-dimethylbenzamide] | 
< 100 | CC(C)(O)c1ccc(COc2ccc(CN3Cc4ccccc4C3)cc2S(C)(=O)=O)cc1 [Compound 86, 2-(4-((4-(Isoindolin-2-ylmethyl)-2-(methylsulfonyl)phenoxy)methyl)phenyl)-propan-2-ol] | 

Further lines, the compound ahead of its results:

SMILES | IC50 [1] [nM] | also measured
CS(=O)(=O)N1CCC(COc2coc(CN3Cc4ccc(-c5cnco5)cc4C3)cc2=O)CC1 [Compound 2, 5-((1-(Methylsulfonyl)piperidin-4-yl)methoxy)-2-((5-(oxazol-5-yl)isoindolin-2-yl)methyl)-4H-pyran-4-one] | 101 to 200 | Number of CN trapped metabolites ([2]; test compound 10 μM): 0; Number of GSH trapped metabolites ([2]; test compound 10 μM): 0; Number of SCA trapped metabolites ([2]; test compound 10 μM): 3 (trace)
CC(C)(C)OC(=O)N1CC2(CC(COc3coc(CN4CCc5ccccc5C4)cc3=O)C2)C1 [Compound 30, tert-Butyl 6-(((6-((3,4-dihydroisoquinolin-2(1H)-yl)methyl)-4-oxo-4H-pyran-3-yl)oxy)methyl)-2-azaspiro[3.3]heptane-2-carboxylate] | 201 to 2000 | Number of CN trapped metabolites ([2]; test compound 1 μM): 0; Number of GSH trapped metabolites ([2]; test compound 1 μM): 0; Number of SCA trapped metabolites ([2]; test compound 1 μM): 0
CC(c1cc(=O)c(OCC2CCN(S(C)(=O)=O)CC2)co1)N1Cc2ccc(-c3ncco3)cc2C1 (stereo not drawn) [Compound 17b, 5-((1-(Methylsulfonyl)piperidin-4-yl)methoxy)-2-(1-(5-(oxazol-2-yl)isoindolin-2-yl)ethyl)-4H-pyran-4-one] |  | Number of CN trapped metabolites ([2]; test compound 10 μM): 0; Number of GSH trapped metabolites ([2]; test compound 10 μM): 0; Number of SCA trapped metabolites ([2]; test compound 10 μM): 1 (trace)
C[C@H](c1cc(=O)c(OCC2CCN(S(C)(=O)=O)CC2)co1)N1Cc2ccccc2[C@H]2C[C@H]21 (relative stereo) [Compound 24b, 5-((1-(Methylsulfonyl)piperidin-4-yl)methoxy)-2-((R*)-1-((1aR*,7bR*)-1,1a,3,7b-tetrahydro-2H-cyclopropa[c]isoquinolin-2-yl)ethyl)-4H-pyran-4-one] |  | Number of CN trapped metabolites ([2]; test compound 10 μM): 2 (trace); Number of GSH trapped metabolites ([2]; test compound 10 μM): 0; Number of SCA trapped metabolites ([2]; test compound 10 μM): 0
CC(C)(C)OC(=O)N1CCC2(CC1)CC(Oc1coc(CN3CCc4ccccc4C3)cc1=O)C2 [Compound 32, tert-Butyl 2-((6-((3,4-dihydroisoquinolin-2(1H)-yl)methyl)-4-oxo-4H-pyran-3-yl)oxy)-7-azaspiro[3.5]nonane-7-carboxylate] | 101 to 200 | 
O=c1cc(CN2CCc3ccccc3C2)occ1OC1CC2(CCN(S(=O)(=O)c3cccnc3)CC2)C1 [Compound 54, 2-((3,4-Dihydroisoquinolin-2(1H)-yl)methyl)-5-((7-(pyridin-3-ylsulfonyl)-7-azaspiro[3.5]nonan-2-yl)oxy)-4H-pyran-4-one] | 201 to 2000 | 
O=c1cc(CN2CCc3ccccc3C2)occ1OCC1CC2(C1)CN(c1ncccn1)C2 [Compound 50, 2-((3,4-Dihydroisoquinolin-2(1H)-yl)methyl)-5-((2-(pyrimidin-2-yl)-2-azaspiro-[3.3]heptan-6-yl)methoxy)-4H-pyran-4-one] | 201 to 2000 | 
CS(=O)(=O)c1cc(C(N2Cc3ccccc3C2)C(F)(F)F)ccc1OCC1CCN(S(C)(=O)=O)CC1 (stereo not drawn) [Compound 21, 2-(2,2,2-Trifluoro-1-(3-(methylsulfonyl)-4-((1-(methylsulfonyl)piperidin-4-yl)methoxy)phenyl)ethyl)isoindoline] | 101 to 200 | 
CCCCS(=O)(=O)c1cc(CN2Cc3ccccc3C2)ccc1OCC1CCN(S(C)(=O)=O)CC1 [Compound 28, 2-(3-(Butylsulfonyl)-4-((1-(methylsulfonyl)piperidin-4-yl)methoxy)benzyl)iso-indoline] | < 100 | 
CS(=O)(=O)N1CC2(CC(COc3coc(CN4CCc5ccccc5C4)cc3=O)C2)C1 [Compound 62, 2-((3,4-Dihydroisoquinolin-2(1H)-yl)methyl)-5-((2-(methylsulfonyl)-2-azaspiro[3.3]heptan-6-yl)methoxy)-4H-pyran-4-one] | 201 to 2000 | 
CS(=O)(=O)N1CCC(COc2coc(CN3Cc4ccccc4C4(CC4)C3)cc2=O)CC1 [Compound 103, 2-((1′H-Spiro[cyclopropane-1,4′-isoquinolin]-2′(3′H)-yl)methyl)-5-((1-(methyl-sulfonyl)piperidin-4-yl)methoxy)-4H-pyran-4-one] | 201 to 2000 | 
CS(=O)(=O)N1CCC(COc2ccc(CN3Cc4ccccc4C3)cc2S(=O)(=O)C2CC2)CC1 [Compound 26, 2-(3-(Cyclopropylsulfonyl)-4-((1-(methylsulfonyl)piperidin-4-yl)methoxy)-benzyl)isoindoline] | 101 to 200 | 
CS(=O)(=O)c1cc(CN2Cc3ccccc3C2)ccc1OCC1CCC(C(=O)N2CCC2)CC1 (stereo not drawn) [Compound 80, Azetidin-1-yl(4-((4-(isoindolin-2-ylmethyl)-2-(methylsulfonyl)phenoxy)-methyl)cyclohexyl)methanone] | 101 to 200 | 
CS(=O)(=O)N1CCC(COc2coc(CN3Cc4ccc(-c5nncs5)cc4C3)cc2=O)CC1 [Compound 6, 2-((5-(1,3,4-Thiadiazol-2-yl)isoindolin-2-yl)methyl)-5-((1-(methylsulfonyl)-piperidin-4-yl)methoxy)-4H-pyran-4-one] | 101 to 200 | 
O=c1cc(CN2CCc3ccccc3C2)occ1OCC1CC2(CCN(c3ncccn3)CC2)C1 [Compound 48, 2-((3,4-Dihydroisoquinolin-2(1H)-yl)methyl)-5-((7-(pyrimidin-2-yl)-7-azaspiro-[3.5]nonan-2-yl)methoxy)-4H-pyran-4-one] | 101 to 200 | 
